# Measurements published in the COVID Moonshot data (paper PMC11187573), “Identification of SARS-CoV-2 Mpro inhibitors through deep reinforcement learning for de novo drug design and computational chemistry approaches” (RSC Medicinal Chemistry, 2024).
# Tests used:
# [1] = biological target: SARS-CoV-2 Main Protease (SARS-CoV-2) (UniProt P0DTD1)
# [2] = biological target: SARS-CoV-2 Main Protease (SARS-CoV-2) (UniProt P0DTD1); remark: listed apart in the source
Compound,inhibition ([1]; 20.0 µM) [%],inhibition ([1]; 50.0 µM) [%],IC50 [2] [µM],inhibition ([2]; 50.0 µM) [%],relative solubility at 20 uM,relative solubility at 100 uM,inhibition ([2]; 20.0 µM) [%]
O=C1N(Cc2cccc(Cl)c2)CCN1c1nccc2n[nH]cc12,72.1,84.1,2.91,88.8,0.92,0.93,–
O=C(Nc1ccccc1Cl)c1cc(Cl)ccc1O,5.47,5.58,–,–,0.91,0.7,7.14
C=CC(=O)N(c1ccc(N(C)C)c(C)c1)C(C(=O)NC(C)(C)C)c1cccnc1 (stereo not given),2.89,8.8,–,14.4,0.98,0.95,0
Cc1cccc(NC(=O)Cn2cncc2C)n1,-1.3,-3.38,–,0,1,1.01,–
O=C(CCl)N1CCCC(c2nc(-c3cccnc3)nc3ccccc23)C1 (stereo not given),7.84,31.8,–,100,0.9,0.89,–
CC(NC(=O)c1ccc2cn[nH]c2c1)C(=O)Nc1ccc(-n2cnc3ccccc32)cc1 (stereo not given),13,3.73,–,12.8,0.7,0.51,–
C=CC(=O)N(c1cc(C(C)(C)C)on1)C(C(=O)NCCc1cccc(F)c1)c1cncc(Cl)c1 (stereo not given),15.8,40.2,4.78,100,0.97,0.56,–
O=C(Cc1ccc(F)cc1)Nc1cccc2cc[nH]c12,-2.43,-33.9,–,0,1,0.88,–
CCN(CC1COc2ccccc2O1)C(=O)c1cc(=O)[nH]c2ccc(Cl)cc12 (stereo not given),8.72,2.69,–,0,0.95,0.89,–
O=C(CSC1=NCCS1)c1cc(Cl)ccc1Cl,5.24,2.86,–,44.8,0.77,0.64,–
CN1CCC(C(=O)NC2CCCCC2NC(=O)C2CCCCC2)CC1 (stereo not given),-19.4,-19.4,–,–,1,1.01,0
NS(=O)(=O)c1ccc(N2CCC(Nc3ccc(F)cc3)CC2)cc1,–,8.08,39.2,50.2,1,0.89,3.79
C=CC(=O)N(c1ccc2ncsc2c1)C(C(=O)Nc1ccc(OC)cc1C)c1cccnc1 (stereo not given),3.21,11.3,–,–,0.94,0.92,0
C=CC(=O)N(c1ccc(C(C)(C)CC)cc1)C(C(=O)Nc1ccccc1Br)c1cccnc1 (stereo not given),–,-11.5,–,8.03,1,1,0
Cc1cc(C)c(C)c(S(=O)(=O)N2CCN(C(=O)c3cc(=O)[nH]c4ccccc34)CC2)c1C,84.4,92.9,3.75,88.1,0.75,0.65,81.7
COc1c(NC(=O)Cc2cccc(Cl)c2Cl)c(C)nn1C,2.78,2.19,–,0,1,1.01,–
Cc1ccnc(NC(=O)Cc2ccc3ccccc3c2)c1,3.57,8.23,–,–,0.98,0.94,0
Cc1ccncc1NC(=O)[C@@H]1C[C@H]1CF (stereo in doubt),4.1,3.57,–,3.35,1,1,–
O=C(CCc1cnn[nH]1)NC(Cn1cccn1)c1ccccc1 (stereo not given),-1.52,-1.11,–,0,1,1,0
COc1ccccc1OCCN(C)C(=O)c1cc(=O)[nH]c2ccc(Cl)cc12,0.453,4.43,–,0,1,0.99,–
C=CC(=O)NCC(=O)N(CCN1CCOCC1)Cc1ccccc1Cl,-18.3,-19.7,–,0,1,1,0
O=C(NCC(O)Cn1ccnn1)c1ccccc1OC1CCC1 (stereo not given),-1.11,2.04,–,0,1,1,0
N#CC(C(=O)Nc1cccc(Cl)c1)C(=O)c1cccs1 (stereo not given),–,31.8,–,0,1,1,0
O=C(Cn1nnc2ccccc21)NCc1ccc(Oc2cccnc2)c(F)c1,-21.1,-19.3,–,–,0.99,0.99,0
Cc1ccnc2[nH]c(CC3CCN(C(=O)CCl)CC3)nc12,5.18,18.1,29.7,100,1,1,–
C=CC(=O)N(c1ccc(N2CCC2)cc1)C(C(=O)NC(C)(C)C)c1cccnc1 (stereo not given),-18.5,-17.3,–,–,0.97,0.93,0
